Measurements as given in article PMC5339874, “Fluorene-9-bisphenol is anti-oestrogenic and may cause adverse pregnancy outcomes in mice” (Nature Communications, 2017).

Assays:
CD-1 mice = assay: Global gene expression microarray of livers, ovaries and uteri; type: in vivo
Procedure: The uteri, ovaries and livers were collected for total RNA isolation. Total RNA was isolated using Trizol reagent (Invitrogen) and further purified by NucleoSpin RNA Clean-up (Macherey-Nagel, Germany). Fluorescence labelling of the RNA samples was performed with a Jingxin cRNA linear amplification and labelling kit (CapitalBio) according to the manufacturer's instructions. The total RNA from each pool of tissue samples (a mixture from three animals) was used for microarray analysis. Cy3 dCTP was used to label the samples. The labelled products were added to SurePrint G3 mouse gene expression 8 × 60 K microarrays (Agilent) and incubated overnight at 42 °C. Following hybridization, the gene arrays were washed and scanned using an Agilent G2565CA Microarray Scanner. Glyceraldehyde 3-phosphate dehydrogenase (GAPDH) was used as an endogenous control to monitor the quality of the target preparation. The data were processed with feature extraction software (GeneSpring GX v.11; Agilent). The raw signals were log-transformed and normalized with the percentile shift normalization method. All arrays met the minimum Agilent QA/QC standards. To verify the data from the gene array, 14 genes were chosen as candidates for Q-RT-PCR. Primers are listed in Supplementary Table 4. GAPDH was used as an endogenous control. Amplification was performed using SYBR Green PCR master mix (Applied Biosystems) according to the manufacturer's instructions. The relative expression was quantified using the 2^(−ΔΔCt) method. The Gene Ontology (GO) and KEGG pathway enrichment analyses were performed with DAVID (refs [40], [41]).

[1] = system: MCF-7 human breast cancer cells; set-up: method as in earlier work; conditions: granted patent CN102727470; cited from earlier work
[2] = 50 mg/kg bw/d BHPF, 3 days, endogenous control
[3] = liver, 50 mg kg^−1 bw d^−1, 3 days
[4] = ovaries, 50 mg kg^−1 bw d^−1, 3 days
[5] = uteri, 50 mg kg^−1 bw d^−1, 3 days

Oc1ccc(C2(c3ccc(O)cc3)c3ccccc3-c3ccccc32)cc1 [BHPF, 9,9-bis(4-hydroxyphenyl)-fluorene]
genes involved in biotransformation and oxidation-reduction processes (CD-1 mice; 50 mg kg^−1 bw d^−1, 3 days): up-regulated in the uterus but not in the liver | Actb gene expression change, liver, Microarray (CD-1 mice; 50 mg/kg bw/d BHPF, 3 days): 1.09 | Actb gene expression change, ovary, Microarray (CD-1 mice; 50 mg/kg bw/d BHPF, 3 days): 1.34 | Actb gene expression change, uterus, Microarray (CD-1 mice; 50 mg/kg bw/d BHPF, 3 days): 1.07 | Cfd gene expression change, liver, Microarray (CD-1 mice; 50 mg/kg bw/d BHPF, 3 days): -3.11 | Cfd gene expression change, ovary, Microarray (CD-1 mice; 50 mg/kg bw/d BHPF, 3 days): 4.13 | Cfd gene expression change, uterus, Microarray (CD-1 mice; 50 mg/kg bw/d BHPF, 3 days): -6.54 | Orm1 gene expression change, liver, Microarray (CD-1 mice; 50 mg/kg bw/d BHPF, 3 days): -1.65 | Orm1 gene expression change, ovary, Microarray (CD-1 mice; 50 mg/kg bw/d BHPF, 3 days): 1.18 | Orm1 gene expression change, uterus, Microarray (CD-1 mice; 50 mg/kg bw/d BHPF, 3 days): 23.12 | Spp1 gene expression change, liver, Microarray (CD-1 mice; 50 mg/kg bw/d BHPF, 3 days): -1.30 | Spp1 gene expression change, ovary, Microarray (CD-1 mice; 50 mg/kg bw/d BHPF, 3 days): -1.67 | Spp1 gene expression change, uterus, Microarray (CD-1 mice; 50 mg/kg bw/d BHPF, 3 days): 2.57 | Sprr1a gene expression change, liver, Microarray (CD-1 mice; 50 mg/kg bw/d BHPF, 3 days): 2.17 | Sprr1a gene expression change, ovary, Microarray (CD-1 mice; 50 mg/kg bw/d BHPF, 3 days): 1.17 | Sprr1a gene expression change, uterus, Microarray (CD-1 mice; 50 mg/kg bw/d BHPF, 3 days): -3.44 | Sprr2a2 gene expression change, liver, Microarray (CD-1 mice; 50 mg/kg bw/d BHPF, 3 days): 2.10 | Sprr2a2 gene expression change, ovary, Microarray (CD-1 mice; 50 mg/kg bw/d BHPF, 3 days): -12.01 | Sprr2a2 gene expression change, uterus, Microarray (CD-1 mice; 50 mg/kg bw/d BHPF, 3 days): -5.24 | Sprr2b gene expression change, liver, Microarray (CD-1 mice; 50 mg/kg bw/d BHPF, 3 days): 2.75 | Sprr2b gene expression change, ovary, Microarray (CD-1 mice; 50 mg/kg bw/d BHPF, 3 days): -2.07 | Sprr2b gene expression change, uterus, Microarray (CD-1 mice; 50 mg/kg bw/d BHPF, 3 days): -13.20 | Sprr2f gene expression change, liver, Microarray (CD-1 mice; 50 mg/kg bw/d BHPF, 3 days): 3.69 | Sprr2f gene expression change, ovary, Microarray (CD-1 mice; 50 mg/kg bw/d BHPF, 3 days): -5.81 | Sprr2f gene expression change, uterus, Microarray (CD-1 mice; 50 mg/kg bw/d BHPF, 3 days): -2.52 | Sprr2g gene expression change, liver, Microarray (CD-1 mice; 50 mg/kg bw/d BHPF, 3 days): 2.09 | Sprr2g gene expression change, ovary, Microarray (CD-1 mice; 50 mg/kg bw/d BHPF, 3 days): -5.71 | Sprr2g gene expression change, uterus, Microarray (CD-1 mice; 50 mg/kg bw/d BHPF, 3 days): -2.13 | chil3 gene expression change, liver, Microarray (CD-1 mice; 50 mg/kg bw/d BHPF, 3 days): -8.53 | chil3 gene expression change, ovary, Microarray (CD-1 mice; 50 mg/kg bw/d BHPF, 3 days): -9.16 | chil3 gene expression change, uterus, Microarray (CD-1 mice; 50 mg/kg bw/d BHPF, 3 days): -6.60 | cyp2e1 gene expression change, liver, Microarray (CD-1 mice; 50 mg/kg bw/d BHPF, 3 days): -1.01 | cyp2e1 gene expression change, ovary, Microarray (CD-1 mice; 50 mg/kg bw/d BHPF, 3 days): 1.25 | cyp2e1 gene expression change, uterus, Microarray (CD-1 mice; 50 mg/kg bw/d BHPF, 3 days): 5.02 | ll1f6 gene expression change, liver, Microarray (CD-1 mice; 50 mg/kg bw/d BHPF, 3 days): 1.95 | ll1f6 gene expression change, ovary, Microarray (CD-1 mice; 50 mg/kg bw/d BHPF, 3 days): -1.11 | ll1f6 gene expression change, uterus, Microarray (CD-1 mice; 50 mg/kg bw/d BHPF, 3 days): -10.96 | serp1d gene expression change, liver, Microarray (CD-1 mice; 50 mg/kg bw/d BHPF, 3 days): 1.02 | serp1d gene expression change, ovary, Microarray (CD-1 mice; 50 mg/kg bw/d BHPF, 3 days): 1.13 | serp1d gene expression change, uterus, Microarray (CD-1 mice; 50 mg/kg bw/d BHPF, 3 days): 17.78 | GAPDH gene expression change, liver, Microarray (CD-1 mice; [2]): 1.02 | GAPDH gene expression change, ovary, Microarray (CD-1 mice; [2]): 1.03 | GAPDH gene expression change, uterus, Microarray (CD-1 mice; [2]): -1.02 | share of modified genes down-regulated (CD-1 mice; [3]): 22.3% | share of modified genes up-regulated (CD-1 mice; [3]): 77.7% | expression of sprr2a, sprr2b, sprr2f and sprr2g (response to E2 stimuli) (CD-1 mice; [4]): down-regulated | share of modified genes down-regulated (CD-1 mice; [4]): 65.5% | share of modified genes up-regulated (CD-1 mice; [4]): 34.5% | expression pattern of oestrogen-responsive genes compared with that induced by E2 (CD-1 mice; [5]): opposite expression pattern | share of modified genes down-regulated (CD-1 mice; [5]): 43.4% | share of modified genes up-regulated (CD-1 mice; [5]): 56.6% | proliferation of MCF-7 human breast cancer cells [1]: inhibited the proliferation
